The source of these data is patent US10253032B2, “Spiro-lactam NMDA receptor modulators and uses thereof” (Aptinyx Inc., priority 2013, dated 2019).

For assay [1], the target named is T1, NMDA receptor glycine site, rat cortical membranes (Rattus norvegicus, UniProt P35439).
T1 construct: well washed rat cortical membranes (200 μg); from tissue; host or cells: rat cerebral cortex membranes
In words: [3H] MK-801 binding assay (MK-801 Glycine Site Binding Assay: Rat, Cortex). As to conditions: potentiation of [3H]MK-801 binding (5 nM), 50 μM glutamate, 15 min @25° C. The method, then:
Assays were conducted as described in Moskal et al. (Moskal, J. R., Kuo, A. G., Weiss, C., Wood, P. L., O'Connor Hanson, A., Kelso, S., Harris, R. B., Disterhoft, S. F., 2005. GLYX-13: a monoclonal antibody-derived peptide that acts as an N-methyl-D-aspartate receptor modulator. Neuropharmacology. 49, 1077-87) The potentiation of [^3H]MK-801 binding (5 nM; 22.5 Ci/mmol) to well washed rat cortical membranes (200 μg) was measured under non-equilibrium conditions (15 min @25° C.) in the presence of increasing concentrations of test compounds and 50 μM glutamate. Zero levels were determined in the absence of any glycine ligand and in the presence of 30 μM 5.7 DCKA. Maximal stimulation was measured in the presence of 1 mM glycine, and 50 μM glutamate was present in all samples. The facilitation of [^3H]MK-801 binding by tests compounds was calculated by using a 3 parameter log agonist vs. response equation (Graph pad Prism, USA) and potency (EC50, expressed in pM) and maximal activity (% maximal stimulation) were calculated for the test compound.

The test system of a further assay is LTP. The assay is described as follows: LTP (long-term potentiation) augmentation. As to conditions: LTP Concentration 1 uM.

Take `NC(=O)C(CO)N1CCCC12CNC2=O` (centres unmarked) [Compound X]: in assay [1], the EC50 stood at 2.43 nM. Moreover, in the assay with LTP, the “LTP: LTP Augmentation” value is on record as 75%.
